From US10829520B2, “Beta-hairpin peptidomimetics” (POLYPHOR AG, priority 2015, dated 2020)
Where a SMILES comes first, the peptide text is derived from it. Bridges are numbered along the chain shown (N, C = ends). Roman numbers before positions name the chains, in order. [ ]: non-standard residue; d: D form. dHyp = O=C(O)[C@H]1C[C@H](O)CN1; NMeDab = CN[C@@H](CCN)C(=O)O; Tle = CC(C)(C)[C@H](N)C(=O)O; dNle = CCCC[C@@H](N)C(=O)O; dDab = NCC[C@@H](N)C(=O)O; Nle = CCCC[C@H](N)C(=O)O; Orn = NCCC[C@H](N)C(=O)O; Dab = NCC[C@H](N)C(=O)O; dAze = O=C(O)[C@H]1CCN1

Legend:
Type in all cases: cell-based
[1] = test system: Acinetobacter baumannii 872842; conditions: 872842
[2] = test system: Acinetobacter baumannii DSM 30008; conditions: DSM 30008
Summary of the method: (§1)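 CLSI broth microdilution in cation-adjusted Mueller-Hinton II broth with 0.002% Polysorbate 80, inoculum appr. 10^6 CFU/mL, peptides in serial two-fold dilutions. MIC (μg/mL) is the lowest concentration with no visible growth after 18-20 hours at 35° C.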

[3] = test system: Escherichia coli 926415; conditions: 926415
[4] = test system: Escherichia coli ATCC 25922; conditions: ATCC 25922
Summary of the method: as §1

[5] = test system: Klebsiella pneumoniae 968733; conditions: 968733
[6] = test system: Klebsiella pneumoniae SSI #3010; conditions: SSI #3010
Summary of the method: as §1

[7] = test system: Pseudomonas aeruginosa ATCC 27853; conditions: ATCC 27853
Summary of the method: as §1

[8] = test system: human red blood cells (hRBC); assay: Hemolysis of human red blood cells; conditions: red cells of human, 1 h
Summary of the method: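 Hemolysis was read as supernatant absorbance at 540 nm and expressed as a percentage of Triton X-100 (2.5%) lysis. Washed human red cells (20% v/v) had been exposed to each peptide at 100 μg/mL for 1 h at 37° C.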

SMILES	Acinetobacter baumannii 872842 MIC [1] [mg/L]	Acinetobacter baumannii DSM 30008 MIC [2] [mg/L]	Escherichia coli 926415 MIC [3] [mg/L]	Escherichia coli ATCC 25922 MIC [4] [mg/L]	Klebsiella pneumoniae 968733 MIC [5] [mg/L]	Klebsiella pneumoniae SSI #3010 MIC [6] [mg/L]	Pseudomonas aeruginosa ATCC 27853 MIC [7] [mg/L]	Hemolysis at 100 μg/mL ([8]; 100 μg/mL) [%]	Hemolysis at 100 μg/mL [8]; 100 [%]
CCCC[C@@H]1NC(=O)[C@@H]2CCCN2C(=O)[C@H]2CCCN2C(=O)[C@H](CO)NC(=O)[C@H](CO)NC(=O)[C@H](C(C)(C)C)NC(=O)[C@H](CCN)NC(=O)[C@H](Cc2c[nH]c3ccccc23)NC(=O)[C@@H](N)CSSC[C@@H](C(=O)N[C@H](CCCC)C(=O)N[C@H](CCN)C(=O)N[C@H]2CCNC(=O)[C@H]([C@@H](C)O)NC(=O)[C@H](CCN)NC(=O)[C@H](CCN)NC(=O)[C@H](CC(C)C)NC(=O)[C@@H](Cc3ccccc3)NC(=O)[C@H](CCN)NC2=O)NC(=O)[C@H](CCCN)NC(=O)[C@H](CCN)NC(=O)[C@H](Cc2ccc(O)cc2)NC(=O)[C@H](CO)NC1=O [Ex. 200] (H-CW[Dab][Tle]SS[dP]P[Nle]SY[Dab][Orn]C[dNle][dDab][Dab][Dab][dF]L[Dab][Dab]T; disulfide 1-14; lactam 17-C)	1	0.5	0.5	0.125	1	0.25	2	<1	
CC(C)C[C@@H]1NC(=O)[C@H](C)NC(=O)[C@H]2C[C@H](O)CN2C(=O)[C@H](CO)NC(=O)[C@H](C)NC(=O)[C@H](C(C)C)NC(=O)[C@@H](NC(=O)[C@@H](N)Cc2c[nH]c3ccccc23)CSSC[C@@H](C(=O)N[C@@H](CCN)C(=O)N[C@@H](CCN)C(=O)N[C@H](C(=O)N[C@@H](CCN)C(=O)N[C@H]2CCNC(=O)[C@H]([C@@H](C)O)NC(=O)[C@H](CCN)NC(=O)[C@H](CCN)NC(=O)[C@H](CC(C)C)NC(=O)[C@@H](CC(C)C)NC(=O)[C@H](CCN)NC2=O)[C@@H](C)O)NC(=O)[C@H](Cc2ccc(O)cc2)NC(=O)[C@H](CO)NC1=O [Ex. 129] (H-WCVAS[dHyp]ALSYC[Dab][Dab]T[Dab][Dab][Dab][dL]L[Dab][Dab]T; disulfide 2-11; lactam 16-C)	0.0625	0.125	0.25	0.0625	2	0.125	0.125	<1	
CCCC[C@@H]1NC(=O)[C@@H]2CCCN2C(=O)[C@H]2CCCN2C(=O)[C@H](CO)NC(=O)[C@H](C)NC(=O)[C@H](C(C)(C)C)NC(=O)[C@@H](NC(=O)[C@H](Cc2c[nH]c3ccccc23)NC(=O)[C@@H](N)CCCN)CSSC[C@@H](C(=O)N[C@@H](CCN)C(=O)N[C@H](C(=O)N[C@@H](CCN)C(=O)N[C@H]2CCNC(=O)[C@H]([C@@H](C)O)NC(=O)[C@H](CCN)NC(=O)[C@H](CCN)NC(=O)[C@H](CC(C)C)NC(=O)[C@@H](Cc3ccccc3)NC(=O)[C@H](CCN)NC2=O)[C@@H](C)O)NC(=O)[C@H](Cc2ccc(O)cc2)NC(=O)[C@H](CO)NC1=O [Ex. 38] (H-[Orn]WC[Tle]AS[dP]P[Nle]SYC[Dab]T[Dab][Dab][Dab][dF]L[Dab][Dab]T; disulfide 3-12; lactam 16-C)	0.5	0.5	0.125	0.25	2	0.25	0.25	1	
CC(C)C[C@@H]1NC(=O)[C@@H](CC(C)C)NC(=O)[C@H](CCN)NC(=O)[C@@H](NC(=O)[C@H](CCN)NC(=O)[C@@H](NC(=O)[C@H](CCN)NC(=O)CC[C@@H]2NC(=O)[C@H]([C@@H](C)O)NC(=O)[C@H](Cc3ccc(O)cc3)NC(=O)[C@H]([C@@H](C)O)NC(=O)[C@H](C(C)C)NC(=O)[C@@H]3CCCN3C(=O)[C@H]3CCN3C(=O)[C@H]([C@@H](C)O)NC(=O)[C@H](C)NC(=O)[C@H](C(C)(C)C)NC(=O)[C@H]([C@@H](C)O)NC(=O)[C@H](Cc3c[nH]c4ccccc34)NC(=O)[C@H]([C@@H](C)O)NC(=O)[C@@H]([C@H](C)O)NC2=O)[C@@H](C)O)CCNC(=O)[C@H]([C@@H](C)O)NC(=O)[C@H](CCN)NC(=O)[C@H](CCN)NC1=O [Ex. 100] (I: cyclo(AT[dAze]PVTYTE[dT]TWT[Tle]) / II: [Dab]T[Dab][Dab][Dab][dL]L[Dab][Dab]T; amide I:9-II:N; lactam II:4-II:C)	0.25	0.0625	0.5	0.0625	2	0.125	0.125		2
CCCC[C@@H]1NC(=O)[C@@H]2CCCN2C(=O)[C@H]2CCCN2C(=O)[C@H](CO)NC(=O)[C@H](C)NC(=O)[C@H](C(C)(C)C)NC(=O)[C@H](CCN)NC(=O)[C@H](Cc2c[nH]c3ccccc23)NC(=O)[C@H](CCN)NC(=O)[C@@H](CCN)NC(=O)[C@H](CC(=O)N(C)[C@@H](CCN)C(=O)N[C@H]2CCNC(=O)[C@H]([C@@H](C)O)NC(=O)[C@H](CCN)NC(=O)[C@H](CCN)NC(=O)[C@H](CC(C)C)NC(=O)[C@@H](CC(C)C)NC(=O)[C@H](CCN)NC2=O)NC(=O)[C@H](CCN)NC(=O)[C@H](Cc2ccc(O)cc2)NC(=O)[C@H](CO)NC1=O [Ex. 73] (I: cyclo(W[Dab][Tle]AS[dP]P[Nle]SY[Dab]D[dDab][Dab]) / II: [NMeDab][Dab][Dab][dL]L[Dab][Dab]T; amide I:12-II:N; lactam II:2-II:C)	0.5	0.25	0.5	0.25	0.5	0.5	0.25		1
CCCC[C@@H]1NC(=O)[C@@H]2CCCN2C(=O)[C@H]2CCCN2C(=O)[C@H](CO)NC(=O)[C@H](C)NC(=O)[C@H](C(C)(C)C)NC(=O)[C@H](CCN)NC(=O)[C@H](Cc2c[nH]c3ccccc23)NC(=O)[C@H](CCN)NC(=O)[C@H](CC(=O)N[C@@H](CCN)C(=O)N[C@@H](CCN)C(=O)N[C@H]2CCNC(=O)[C@H]([C@@H](C)O)NC(=O)[C@H](CCN)NC(=O)[C@H](CCN)NC(=O)[C@H](CC(C)C)NC(=O)[C@@H](Cc3ccccc3)NC(=O)[C@H](CCN)NC2=O)NC(=O)[C@H](CCCN)NC(=O)[C@H](CCN)NC(=O)[C@H](Cc2ccc(O)cc2)NC(=O)[C@H](CO)NC1=O [Ex. 4] (I: cyclo([Nle]SY[Dab][Orn]D[Dab]W[Dab][Tle]AS[dP]P) / II: [Dab][Dab][Dab][Dab][dF]L[Dab][Dab]T; amide I:6-II:N; lactam II:3-II:C)	2	1	1	1	8	1	0.25		1
CCCC[C@@H]1NC(=O)[C@@H]2CCCN2C(=O)[C@H]2CCCN2C(=O)[C@H](CO)NC(=O)[C@H](C)NC(=O)[C@H](C(C)(C)C)NC(=O)[C@H](CCN)NC(=O)[C@H](Cc2c[nH]c3ccccc23)NC(=O)[C@@H](NC(C)=O)CSSC[C@@H](C(=O)N[C@@H](CCN)C(=O)N[C@H](C(=O)N[C@@H](CCN)C(=O)N[C@H]2CCNC(=O)[C@H]([C@@H](C)O)NC(=O)[C@H](CCN)NC(=O)[C@H](CCN)NC(=O)[C@H](CC(C)C)NC(=O)[C@@H](Cc3ccccc3)NC(=O)[C@H](CCN)NC2=O)[C@@H](C)O)NC(=O)[C@H](CCCN)NC(=O)[C@H](CCN)NC(=O)[C@H](Cc2ccc(O)cc2)NC(=O)[C@H](CO)NC1=O [Ex. 62] (Ac-CW[Dab][Tle]AS[dP]P[Nle]SY[Dab][Orn]C[Dab]T[Dab][Dab][Dab][dF]L[Dab][Dab]T; disulfide 1-14; lactam 18-C)	0.5	0.5	1	0.25	8	0.5	0.5	1	
CCCC[C@@H]1NC(=O)[C@@H]2CCCN2C(=O)[C@H]2CCCN2C(=O)[C@H](CO)NC(=O)[C@H](C)NC(=O)[C@H](C(C)(C)C)NC(=O)[C@H](CCN)NC(=O)[C@H](Cc2c[nH]c3ccccc23)NC(=O)[C@@H](NC(C)=O)CCNC(=O)CC[C@@H](C(=O)N[C@H](CCN)C(=O)N[C@H]2CCNC(=O)[C@H]([C@@H](C)O)NC(=O)[C@H](CCN)NC(=O)[C@H](CCN)NC(=O)[C@H](CC(C)C)NC(=O)[C@@H](Cc3ccccc3)NC(=O)[C@H](CCN)NC2=O)NC(=O)[C@H](CCCN)NC(=O)[C@H](CCN)NC(=O)[C@H](Cc2ccc(O)cc2)NC(=O)[C@H](CO)NC1=O [Ex. 197] (Ac-[Dab]W[Dab][Tle]AS[dP]P[Nle]SY[Dab][Orn]E[dDab][Dab][Dab][dF]L[Dab][Dab]T; lactam 1-14, 16-C)	4	0.5	0.25	0.0625	2	0.25	2		2
